{"source": "paper PMC11406361", "about": "“Several orphan solute carriers functionally identified as organic cation transporters: Substrates specificity compared with known cation transporters” (The Journal of Biological Chemistry, 2024)", "key": {"SLC19A3": {"target": "T1, SLC19A3 (Homo sapiens, UniProt Q9BZV2)", "T1 construct": "expressed in transfected cells", "T1 sequence (Q9BZV2 whole entry)": "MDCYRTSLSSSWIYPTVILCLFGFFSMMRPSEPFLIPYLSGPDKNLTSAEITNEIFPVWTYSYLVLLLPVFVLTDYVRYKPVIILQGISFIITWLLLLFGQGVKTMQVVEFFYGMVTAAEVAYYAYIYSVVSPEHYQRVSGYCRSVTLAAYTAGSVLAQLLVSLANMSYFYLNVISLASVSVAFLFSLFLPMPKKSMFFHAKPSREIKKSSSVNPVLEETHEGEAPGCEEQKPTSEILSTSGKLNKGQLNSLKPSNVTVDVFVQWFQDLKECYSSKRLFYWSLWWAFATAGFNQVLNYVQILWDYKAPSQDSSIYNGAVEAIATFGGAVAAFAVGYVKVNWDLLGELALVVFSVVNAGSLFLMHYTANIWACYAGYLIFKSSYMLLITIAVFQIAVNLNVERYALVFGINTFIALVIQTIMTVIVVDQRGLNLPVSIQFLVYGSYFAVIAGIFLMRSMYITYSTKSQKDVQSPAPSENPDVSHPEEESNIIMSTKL", "test": "Uptake ratio screen, SLC19A3-overexpressing HEK293 over empty vector cells", "type": "cell-based", "details": "2.5 μM, 2 min", "description": "(§1) Typically discussed substrates of the proton organic-cation antiporter ([14]) are highlighted in dark green in Figure 1.\nIn preparation for transport experiments, 24-well plates were pre-coated with poly-D-lysine (Sigma-Aldrich) and 300,000 cells were plated per well and incubated for 48 h. Firstly, the 24-well plate was placed on a heating plate at 37 °C, and the cells were washed with 37 °C HBSS^+ buffer (Hank’s balanced salt solution supplemented with 10 mM Hepes and adjusted to pH 7.4; Thermo Fisher Scientific). The substance-of-interest, which was diluted in 37 °C HBSS^+ to a desired concentration, was added to the cells for exactly 2 min. […] For variations in seeded cell numbers between the cell lines, several wells were lysed in RIPA buffer and used for total protein quantification using a bicinchoninic assay ([74]) and bovine serum albumin as calibration.\nThe intracellular drug concentrations after transport experiments were analyzed by high-performance liquid chromatography coupled to tandem mass spectrometry analysis. […] After separation, the detection of substances was performed with an API 4000 tandem mass spectrometer (AB SCIEX, https://sciex.com/support/software-support/software-downloads), followed by quantification of results with the Analyst software (AB SCIEX, version 1.6.2). […]"}, "SLC35F3": {"target": "SLC35F3 (Homo sapiens, UniProt Q8IY50)", "sequence (Q8IY50 whole entry)": "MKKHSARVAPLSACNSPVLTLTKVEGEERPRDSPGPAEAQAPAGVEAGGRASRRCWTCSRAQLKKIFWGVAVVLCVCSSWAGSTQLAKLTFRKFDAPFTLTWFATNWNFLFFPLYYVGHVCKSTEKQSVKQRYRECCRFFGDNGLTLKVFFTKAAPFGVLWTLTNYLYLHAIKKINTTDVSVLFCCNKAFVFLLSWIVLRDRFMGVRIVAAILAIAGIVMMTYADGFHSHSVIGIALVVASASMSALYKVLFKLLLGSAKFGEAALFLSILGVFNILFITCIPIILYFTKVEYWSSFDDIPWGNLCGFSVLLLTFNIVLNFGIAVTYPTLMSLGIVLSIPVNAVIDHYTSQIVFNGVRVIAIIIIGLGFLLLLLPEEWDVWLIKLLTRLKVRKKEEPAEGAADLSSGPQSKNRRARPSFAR"}, "SLC44A2": {"target": "SLC44A2 (Homo sapiens, UniProt Q8IWA5)", "sequence (Q8IWA5 whole entry)": "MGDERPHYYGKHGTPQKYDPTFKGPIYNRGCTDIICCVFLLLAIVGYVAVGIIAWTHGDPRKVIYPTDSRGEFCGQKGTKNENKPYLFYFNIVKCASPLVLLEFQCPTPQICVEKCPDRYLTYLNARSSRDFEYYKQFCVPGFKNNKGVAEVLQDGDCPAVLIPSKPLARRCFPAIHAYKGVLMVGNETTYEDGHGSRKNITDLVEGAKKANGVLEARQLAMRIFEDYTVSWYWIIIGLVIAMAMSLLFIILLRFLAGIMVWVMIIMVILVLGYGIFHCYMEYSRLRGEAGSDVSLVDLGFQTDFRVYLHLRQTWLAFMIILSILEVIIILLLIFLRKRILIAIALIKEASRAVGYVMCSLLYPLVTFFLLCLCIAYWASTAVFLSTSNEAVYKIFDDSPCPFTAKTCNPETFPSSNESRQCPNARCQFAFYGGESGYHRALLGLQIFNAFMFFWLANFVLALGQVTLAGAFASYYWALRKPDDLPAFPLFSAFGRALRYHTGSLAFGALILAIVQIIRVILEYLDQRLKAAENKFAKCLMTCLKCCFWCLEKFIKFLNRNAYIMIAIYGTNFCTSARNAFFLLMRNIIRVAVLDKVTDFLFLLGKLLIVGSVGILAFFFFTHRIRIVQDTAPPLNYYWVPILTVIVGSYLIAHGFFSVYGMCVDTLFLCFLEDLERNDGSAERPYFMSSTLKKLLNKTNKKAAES", "details": "2.5 μM, 2 min, HEK293", "description": "as §1\n(§2) In preparation for transport experiments, 24-well plates were pre-coated with poly-D-lysine (Sigma-Aldrich) and 300,000 cells were plated per well and incubated for 48 h. Firstly, the 24-well plate was placed on a heating plate at 37 °C, and the cells were washed with 37 °C HBSS^+ buffer (Hank’s balanced salt solution supplemented with 10 mM Hepes and adjusted to pH 7.4; Thermo Fisher Scientific). The substance-of-interest, which was diluted in 37 °C HBSS^+ to a desired concentration, was added to the cells for exactly 2 min. […] The uptake was stopped with ice-cold HBSS^+, and the 24-well plate was removed from the heating plate. The cells were washed twice with the cold HBSS^+ before they were lysed for 15 min with 80% (v/v) acetonitrile containing the respective internal standard for mass spectrometry. For variations in seeded cell numbers between the cell lines, several wells were lysed in RIPA buffer and used for total protein quantification using a bicinchoninic assay ([74]) and bovine serum albumin as calibration.\n(§3) The intracellular drug concentrations after transport experiments were analyzed by high-performance liquid chromatography coupled to tandem mass spectrometry analysis. The HPLC consisted of a Shimadzu Nexera HPLC System with a SIL-30AC autosampler, a LC-30AD pump, a CTO-20AC column oven, and a CBM-20A controller (Shimadzu). The reverse-phase chromatography of compounds was accomplished with a Brownlee SPP RP-Amide column with 4.6 × 100 mm inner dimensions, a particle size of 2.7 μm, and a preceding Phenomenex C-18 guard column. The mobile phase was composed of an organic additive with acetonitrile:methanol 6:1 (v/v) in total concentrations between 3% and 50% (v/v) and 0.1% (v/v) formic acid in the aqueous component of the eluent. During separation, the column oven was held at 40 °C and the mobile phase was maintained at a flow rate of 300 or 400 μl/min. After separation, the detection of substances was performed with an API 4000 tandem mass spectrometer (AB SCIEX, https://sciex.com/support/software-support/software-downloads), followed by quantification of results with the Analyst software (AB SCIEX, version 1.6.2). The composition of chromatographic conditions, as well as detailed mass spectrometric detection parameters, are listed in Table S5.\n(§4) Transport-mediated net uptake was determined as fold-increase of transporter-overexpressing cells over empty vector–transfected control cells."}, "SLC44A1": {"target": "SLC44A1 (Homo sapiens, UniProt Q8WWI5)", "sequence (Q8WWI5 whole entry)": "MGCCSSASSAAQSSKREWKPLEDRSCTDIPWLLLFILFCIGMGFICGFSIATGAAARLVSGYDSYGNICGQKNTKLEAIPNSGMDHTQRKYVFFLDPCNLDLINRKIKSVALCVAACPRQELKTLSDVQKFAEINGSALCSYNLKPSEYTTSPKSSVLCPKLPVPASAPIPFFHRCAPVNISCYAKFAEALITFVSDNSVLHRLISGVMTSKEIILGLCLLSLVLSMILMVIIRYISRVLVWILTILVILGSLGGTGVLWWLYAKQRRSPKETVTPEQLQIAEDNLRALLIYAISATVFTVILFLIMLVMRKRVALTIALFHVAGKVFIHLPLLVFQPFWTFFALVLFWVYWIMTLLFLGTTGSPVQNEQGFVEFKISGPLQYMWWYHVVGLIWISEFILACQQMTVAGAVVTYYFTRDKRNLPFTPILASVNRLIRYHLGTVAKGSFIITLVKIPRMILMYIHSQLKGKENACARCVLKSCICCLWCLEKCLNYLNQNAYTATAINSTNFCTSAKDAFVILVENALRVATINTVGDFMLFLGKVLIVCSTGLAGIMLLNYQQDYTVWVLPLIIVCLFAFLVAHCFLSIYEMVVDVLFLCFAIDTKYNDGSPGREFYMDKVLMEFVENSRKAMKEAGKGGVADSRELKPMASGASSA", "details": "2.5 μM, 2 min, HEK293", "description": "as §1, §2, §3, §4"}, "SLC35E1": {"target": "SLC35E1 (Homo sapiens, UniProt Q96K37)", "sequence (Q96K37 whole entry)": "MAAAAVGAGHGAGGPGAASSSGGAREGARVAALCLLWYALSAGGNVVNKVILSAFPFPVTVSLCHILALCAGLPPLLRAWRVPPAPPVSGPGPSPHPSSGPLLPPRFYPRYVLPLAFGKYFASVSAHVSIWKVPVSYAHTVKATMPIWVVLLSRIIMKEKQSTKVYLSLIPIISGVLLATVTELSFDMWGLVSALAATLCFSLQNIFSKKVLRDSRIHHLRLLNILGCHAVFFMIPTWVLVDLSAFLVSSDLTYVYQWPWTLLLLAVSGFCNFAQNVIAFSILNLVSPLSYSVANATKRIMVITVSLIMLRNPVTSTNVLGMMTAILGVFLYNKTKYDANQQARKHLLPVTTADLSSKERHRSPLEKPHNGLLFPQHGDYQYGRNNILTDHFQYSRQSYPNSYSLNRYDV", "details": "2.5 μM, 2 min, HEK293", "description": "as §1, §2, §3, §4"}, "SLC35G4": {"target": "SLC35G4 (Homo sapiens, UniProt P0C7Q5)", "sequence (P0C7Q5 whole entry)": "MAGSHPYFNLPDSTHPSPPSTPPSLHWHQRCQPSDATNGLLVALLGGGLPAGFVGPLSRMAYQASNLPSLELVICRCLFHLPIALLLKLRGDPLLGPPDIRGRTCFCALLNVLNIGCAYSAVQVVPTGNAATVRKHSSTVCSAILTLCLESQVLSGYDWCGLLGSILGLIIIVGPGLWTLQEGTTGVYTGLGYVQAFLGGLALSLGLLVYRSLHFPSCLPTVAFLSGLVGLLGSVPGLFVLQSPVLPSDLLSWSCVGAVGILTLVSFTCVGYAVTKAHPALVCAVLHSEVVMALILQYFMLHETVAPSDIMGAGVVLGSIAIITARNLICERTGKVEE", "details": "2.5 μM, 2 min, HEK293", "description": "as §1, §2, §3, §4"}, "SLC19A2": {"target": "T2, SLC19A2 (Homo sapiens, UniProt O60779)", "T2 construct": "expressed in transfected cells", "T2 sequence (O60779 1-497)": "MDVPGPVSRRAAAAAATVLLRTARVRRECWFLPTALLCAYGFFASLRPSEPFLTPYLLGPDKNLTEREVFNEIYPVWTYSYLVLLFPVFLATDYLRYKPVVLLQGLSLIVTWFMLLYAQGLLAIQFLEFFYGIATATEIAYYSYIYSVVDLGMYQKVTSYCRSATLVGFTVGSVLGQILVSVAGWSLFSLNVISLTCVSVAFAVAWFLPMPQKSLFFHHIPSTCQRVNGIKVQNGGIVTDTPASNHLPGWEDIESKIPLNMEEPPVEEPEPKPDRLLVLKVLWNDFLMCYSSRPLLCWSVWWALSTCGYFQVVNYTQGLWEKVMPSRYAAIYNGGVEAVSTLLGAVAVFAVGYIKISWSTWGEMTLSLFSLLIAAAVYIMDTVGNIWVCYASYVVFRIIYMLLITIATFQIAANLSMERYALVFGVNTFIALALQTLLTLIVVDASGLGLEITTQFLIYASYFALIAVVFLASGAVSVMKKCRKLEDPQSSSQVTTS", "test": "Uptake ratio screen, SLC19A2-overexpressing HEK293 over empty vector cells", "type": "cell-based", "details": "2.5 μM, 2 min", "description": "as §1, §2\nThe intracellular drug concentrations after transport experiments were analyzed by high-performance liquid chromatography coupled to tandem mass spectrometry analysis. The HPLC consisted of a Shimadzu Nexera HPLC System with a SIL-30AC autosampler, a LC-30AD pump, a CTO-20AC column oven, and a CBM-20A controller (Shimadzu). The reverse-phase chromatography of compounds was accomplished with a Brownlee SPP RP-Amide column with 4.6 × 100 mm inner dimensions, a particle size of 2.7 μm, and a preceding Phenomenex C-18 guard column. […] After separation, the detection of substances was performed with an API 4000 tandem mass spectrometer (AB SCIEX, https://sciex.com/support/software-support/software-downloads), followed by quantification of results with the Analyst software (AB SCIEX, version 1.6.2). […]\nas §4"}, "SLC35F4": {"target": "T3, SLC35F4 (Homo sapiens, UniProt A4IF30)", "T3 sequence (A4IF30 1-521)": "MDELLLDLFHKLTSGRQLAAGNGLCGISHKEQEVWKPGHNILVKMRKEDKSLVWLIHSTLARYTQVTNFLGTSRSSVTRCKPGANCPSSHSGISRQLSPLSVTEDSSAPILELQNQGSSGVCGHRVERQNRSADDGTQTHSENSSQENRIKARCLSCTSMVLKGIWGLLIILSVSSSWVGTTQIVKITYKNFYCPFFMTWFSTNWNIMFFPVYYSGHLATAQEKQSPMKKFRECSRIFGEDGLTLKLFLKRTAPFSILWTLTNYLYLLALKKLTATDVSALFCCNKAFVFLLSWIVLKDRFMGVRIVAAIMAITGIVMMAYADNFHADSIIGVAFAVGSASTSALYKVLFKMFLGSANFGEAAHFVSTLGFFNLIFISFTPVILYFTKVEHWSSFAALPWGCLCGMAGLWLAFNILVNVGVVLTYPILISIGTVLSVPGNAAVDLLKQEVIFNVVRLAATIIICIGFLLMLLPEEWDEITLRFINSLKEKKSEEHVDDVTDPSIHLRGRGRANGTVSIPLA"}, "SLC35F2": {"target": "T4, SLC35F2 (Homo sapiens, UniProt Q8IXU6)", "T4 sequence (Q8IXU6 1-374)": "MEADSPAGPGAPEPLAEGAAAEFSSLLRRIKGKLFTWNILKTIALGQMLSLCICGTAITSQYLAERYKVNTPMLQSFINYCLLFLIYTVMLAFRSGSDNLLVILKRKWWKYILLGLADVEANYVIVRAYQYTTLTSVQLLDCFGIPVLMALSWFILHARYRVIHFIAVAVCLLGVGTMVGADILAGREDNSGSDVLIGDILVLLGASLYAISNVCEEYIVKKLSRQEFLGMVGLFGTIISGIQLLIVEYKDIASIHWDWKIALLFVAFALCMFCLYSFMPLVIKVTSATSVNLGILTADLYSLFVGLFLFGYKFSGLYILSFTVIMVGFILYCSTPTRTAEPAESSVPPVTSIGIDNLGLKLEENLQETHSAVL", "details": "human"}}}
{"smiles": "C[N+](C)(C)CCO", "note": "[Choline]", "values": [{"measurement": "Uptake by SLC19A3 (in words)", "setting": "SLC19A3", "value": "transports"}, {"measurement": "Clint (±SEM)", "setting": "SLC35F3", "value": "1.21 (±1.36) μl × mg protein^-1 × min^-1"}, {"measurement": "Uptake by SLC44A2 (CTL2) (in words)", "setting": "SLC44A2", "value": "moderate choline uptake"}, {"measurement": "Uptake by SLC44A1 (CTL1) (in words)", "setting": "SLC44A1", "value": "moderate choline uptake"}, {"measurement": "Uptake by SLC35E1 (in words)", "setting": "SLC35E1", "value": "significantly enhanced"}, {"measurement": "Uptake by SLC35G4 (in words)", "setting": "SLC35G4", "value": "extensively enhanced the cell uptake"}, {"measurement": "Uptake by SLC19A2 (in words)", "setting": "SLC19A2", "value": "enhance cell uptake"}, {"measurement": "Clint (±SEM)", "setting": "SLC35F4", "value": "1.32 (±1.74) μl × mg protein^-1 × min^-1"}, {"measurement": "Clint (±SEM)", "setting": "SLC35F2", "value": "2.48 (±1.47) μl × mg protein^-1 × min^-1"}]}
